Source: patent US10933061B2 (Shepherd Therapeutics, Inc., priority 2017, dated 2021)
Where “and” joins values, the source holds several entries; their conditions need not be identical. Equal values may be shown once.

Tests used:
[1] = tested on: SK-LMS-1 leiomyosarcoma cells; assay: Chou-Talalay combination assay, Cell Titer Glo; assay type: cell-based; conditions: combination with pyrvinium pamoate, 72 hour incubation
Experimental: (§1) Following a 72 hour incubation, cell viability was determined using Cell Titer Glo.

[2] = tested on: DMS-114 small cell lung carcinoma cells; assay: Chou-Talalay combination assay, Cell Titer Glo; assay type: cell-based; conditions: combination with pyrvinium pamoate, 72 hour incubation
Experimental: as §1

[3] = tested on: TFK-1 cholangiocarcinoma cells; assay: Chou-Talalay combination assay, Cell Titer Glo; assay type: cell-based; conditions: 72 hour incubation; for CI range: combination with pyrvinium pamoate
Experimental: as §1

[4] = tested on: GIST-1 gastrointestinal stromal tumor cells; assay: Chou-Talalay combination assay, Cell Titer Glo; assay type: cell-based; conditions: combination with pyrvinium pamoate, 72 hour incubation
Experimental: as §1

[5] = tested on: CHP-212 neuroblastoma cells; assay: Chou-Talalay combination assay, Cell Titer Glo; assay type: cell-based; conditions: 72 hour incubation; for CI range: combination with pyrvinium pamoate
Experimental: as §1

[6] = tested on: Rh30 rhabdomyosarcoma cells; assay: Chou-Talalay combination assay, Cell Titer Glo; assay type: cell-based; conditions: combination with pyrvinium pamoate, 72 hour incubation
Experimental: as §1

[7] = tested on: COV362 ovarian carcinoma cells; assay: Chou-Talalay combination assay, Cell Titer Glo; assay type: cell-based; conditions: combination with pyrvinium pamoate, 72 hour incubation
Experimental: as §1

[8] = tested on: BxPC-3 pancreatic carcinoma cells; assay: Chou-Talalay combination assay, Cell Titer Glo; conditions: combination with pyrvinium pamoate, 72 hour incubation
Experimental: as §1

[9] = tested on: IMR-32 neuroblastoma cells; assay: Chou-Talalay combination assay, Cell Titer Glo; assay type: cell-based; conditions: combination with pyrvinium pamoate, 72 hour incubation
Experimental: as §1

[10] = tested on: SW-1271 small cell lung carcinoma cells; assay: Chou-Talalay combination assay, Cell Titer Glo; assay type: cell-based; conditions: combination with pyrvinium pamoate, 72 hour incubation
Experimental: as §1

[11] = tested on: CCC-5 cholangiocarcinoma cells; assay: Chou-Talalay combination assay, Cell Titer Glo; assay type: cell-based; conditions: 72 hour incubation; for CI range: combination with pyrvinium pamoate
Experimental: as §1

[12] = tested on: Hs766t pancreatic carcinoma cells; assay: Chou-Talalay combination assay, Cell Titer Glo; assay type: cell-based; conditions: 72 hour incubation
Experimental: as §1

[13] = tested on: PC12 pheochromocytoma/paraganglioma cells; conditions: combination with pyrvinium pamoate, 72 hour incubation
Experimental: as §1

[14] = tested on: SKOV-3 ovarian carcinoma cells; assay: Chou-Talalay combination assay, Cell Titer Glo; assay type: cell-based; conditions: combination with pyrvinium pamoate, 72 hour incubation
Experimental: as §1

[15] = tested on: SNU-16 gastric carcinoma cells; assay: Chou-Talalay combination assay, Cell Titer Glo; assay type: cell-based; conditions: combination with pyrvinium pamoate, 72 hour incubation
Experimental: as §1

[16] = tested on: carcinoid tumor cell line STC-1; assay: Chou-Talalay combination assay, Cell Titer Glo; assay type: cell-based; conditions: combination with pyrvinium pamoate, 72 hour incubation
Experimental: as §1

[17] = tested on: Kato-III gastric carcinoma cells; assay: Chou-Talalay combination assay, Cell Titer Glo; assay type: cell-based; conditions: Kato-III; combination with pyrvinium pamoate; 72 hour incubation
Experimental: as §1

[18] = tested on: Rh41 rhabdomyosarcoma cells; assay: Chou-Talalay combination assay, Cell Titer Glo; assay type: cell-based; conditions: combination with pyrvinium pamoate, 72 hour incubation
Experimental: as §1

[19] = tested on: TOV-112D ovarian carcinoma cells; assay: Chou-Talalay combination assay, Cell Titer Glo; assay type: cell-based; conditions: 72 hour incubation
Experimental: as §1

[20] = tested on: TC-71 Ewing's sarcoma cells; assay: Chou-Talalay combination assay, Cell Titer Glo; assay type: cell-based; conditions: 72 hour incubation
Experimental: as §1

[21] = tested on: TC-32 Ewing's sarcoma cells; assay: Chou-Talalay combination assay, Cell Titer Glo; assay type: cell-based; conditions: combination with pyrvinium pamoate, 72 hour incubation
Experimental: as §1

[22] = tested on: SK-N-AS neuroblastoma cells; assay: Chou-Talalay combination assay, Cell Titer Glo; assay type: cell-based; conditions: SK-N-AS; combination with pyrvinium pamoate; 72 hour incubation
Experimental: as §1

[23] = tested on: SK-UT-1B leiomyosarcoma cells; assay: Chou-Talalay combination assay, Cell Titer Glo; assay type: cell-based; conditions: combination with pyrvinium pamoate, 72 hour incubation
Experimental: as §1

[24] = tested on: UM-Chor1 chordoma cell line; assay: Chou-Talalay combination assay, Cell Titer Glo; assay type: cell-based; conditions: combination with pyrvinium pamoate, 72 hour incubation
Experimental: as §1

[25] = tested on: SK-UT-1 leiomyosarcoma cells; assay: Chou-Talalay combination assay, Cell Titer Glo; assay type: cell-based; conditions: combination with pyrvinium pamoate, 72 hour incubation
Experimental: as §1

JU-77 mesothelioma cells = assay: Chou-Talalay combination assay, Cell Titer Glo; assay type: cell-based; conditions: combination with pyrvinium pamoate, 72 hour incubation
Experimental: as §1

[26] = tested on: NCI-H295R adrenocortical carcinoma cells; assay: Chou-Talalay combination assay, Cell Titer Glo; assay type: cell-based; conditions: combination with pyrvinium pamoate, 72 hour incubation
Experimental: as §1

LO-68 mesothelioma cells = assay: Chou-Talalay combination assay, Cell Titer Glo; assay type: cell-based; conditions: combination with pyrvinium pamoate, 72 hour incubation
Experimental: as §1

[27] = tested on: SW13 adrenocortical carcinoma cells; assay: Chou-Talalay combination assay, Cell Titer Glo; assay type: cell-based; conditions: 72 hour incubation
Experimental: as §1

[28] = combination with pyrvinium pamoate

Structure (SMILES)	CI range [1]	CI range [3]	CI range [4]	CI range [5]	CI range [6]	CI range [7]	CI range [8]	CI range [11]	CI range [13]	CI range [16]	CI range [18]	CI range [21]	CI range [24]	CI range [26]	also measured
CCN1CCN(Cc2ccc(Nc3ncc(F)c(-c4cc(F)c5nc(C)n(C(C)C)c5c4)n3)nc2)CC1 [Abemaciclib]	0.350-0.808	0.522-0.884	0.249-0.699	0.076-0.772	0.148-0.886	0.144-0.714	0.417-0.895	0.628-0.841	–	–	–	–	–	–	CI range [2]: 0.327-0.876; CI range [9]: (0.485-0.860); CI range [10]: 0.183-0.889; CI range [12, 28]: 0.587-0.863 and 0.304-0.879
CN(C)/N=N/c1[nH]cnc1C(N)=O [Dacarbazine]	–	–	–	–	–	–	–	–	0.550-0.818	–	–	–	–	–	–
COc1cccc2c1C(=O)c1c(O)c3c(c(O)c1C2=O)C[C@@](O)(C(=O)CO)C[C@@H]3O[C@H]1C[C@H](N)[C@H](O)[C@H](C)O1 [Doxorubicin]	–	–	0.169-0.883	0.696-0.812	–	0.021-0.895	–	0.341-0.805	–	0.807-0.890	0.145-0.834	0.424-0.872	0.423-0.875	0.185-0.872	Synergy with pyrvinium pamoate [3]: No; CI range [14]: (0.017-0.870); CI range [15]: 0.614-0.878; CI range [17]: Yes- (0.021-0.584); Synergy with pyrvinium pamoate [19]: No; Synergy with pyrvinium pamoate [20]: No; CI range [22]: Yes- (0.082-0.879); CI range [23]: 0.352-0.739; CI range [25]: (0.556-0.858); CI range (JU-77 mesothelioma cells): 0.444-0.889; CI range (LO-68 mesothelioma cells): 0.008-0.642; Synergy with pyrvinium pamoate [27]: No
CC[C@]1(O)C[C@H]2CN(CCc3c([nH]c4ccccc34)[C@@](C(=O)OC)(c3cc4c(cc3OC)N(C=O)[C@H]3[C@@](O)(C(=O)OC)[C@H](OC(C)=O)[C@]5(CC)C=CCN6CC[C@]43[C@@H]65)C2)C1 [Vincristine]	0.163-0.831	0.453-0.827	0.231-0.756 and 0.150-0.772	–	0.477-0.883	0.432-0.825	0.347-0.869	–	0.614-0.841	0.036-0.854	0.284-0.876	0.659-0.869	0.249-0.560	0.752-0.827	Synergy with pyrvinium pamoate [5]: No; CI range [19, 28]: 0.477-0.858; CI range [20, 28]: 0.251-0.898; Synergy with pyrvinium pamoate [11]: No; Synergy with pyrvinium pamoate [12]: No; CI range [27, 28]: 0.499-0.875
